In assay [1] the target is Sodium-dependent dopamine transporter (Rattus norvegicus, UniProt P23977). The experiment in a line: biochemical. It is filed as tissue-based, Brain.
Description: Binding affinity for dopamine transporter was determined in vitro in rat brain using [3H]WIN-35428 s radioligand
The target in assay [2] is T1, Muscarinic acetylcholine receptor M1 (Rattus norvegicus, UniProt P08482).
T1 sequence (P08482 whole entry): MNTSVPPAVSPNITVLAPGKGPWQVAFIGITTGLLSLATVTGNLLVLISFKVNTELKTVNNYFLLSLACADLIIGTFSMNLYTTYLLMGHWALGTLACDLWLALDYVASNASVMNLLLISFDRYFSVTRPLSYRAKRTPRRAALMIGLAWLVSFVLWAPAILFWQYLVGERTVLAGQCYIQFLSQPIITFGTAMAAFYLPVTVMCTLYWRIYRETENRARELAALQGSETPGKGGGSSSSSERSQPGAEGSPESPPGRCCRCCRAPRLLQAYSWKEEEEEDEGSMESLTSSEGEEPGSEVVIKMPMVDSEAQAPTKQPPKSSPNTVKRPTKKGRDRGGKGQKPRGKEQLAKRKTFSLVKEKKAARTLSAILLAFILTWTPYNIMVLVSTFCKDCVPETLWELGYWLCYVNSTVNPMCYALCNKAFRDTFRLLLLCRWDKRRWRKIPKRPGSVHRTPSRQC
The experiment in a line: Binding affinity for muscarinic m1 receptor was determined in vitro in rat brain using [3H]pirenzepine as radioligand. It is filed as tissue-based.

Assay [3] deals with Sodium-dependent serotonin transporter (Rattus norvegicus, UniProt P31652). The assay can be described thus: Binding affinity for serotonin transporter was determined in vitro in rat brain using [3H]citalopram as radioligand. It is filed as tissue-based.
In assay [4] the target is Norepinephrine transporter (Rattus norvegicus, UniProt Q9WTR4). The experiment in a line: Binding affinity for norepinephrine transporter in rat brain using [3H]-nisoxatine as radioligand. It is filed as tissue-based.

pKi: −log10 of the molar value.

From ChEMBL document CHEMBL1134838, “Structure-activity relationships at monoamine transporters and muscarinic receptors for N-substituted-3alpha-(3'-chloro-, 4'-chloro-, and 4',4''-dichloro-substituted-diphenyl)methoxytropanes” (J Med Chem, 2001) come the findings set out here.

Sequence of Sodium-dependent dopamine transporter (P23977 whole entry): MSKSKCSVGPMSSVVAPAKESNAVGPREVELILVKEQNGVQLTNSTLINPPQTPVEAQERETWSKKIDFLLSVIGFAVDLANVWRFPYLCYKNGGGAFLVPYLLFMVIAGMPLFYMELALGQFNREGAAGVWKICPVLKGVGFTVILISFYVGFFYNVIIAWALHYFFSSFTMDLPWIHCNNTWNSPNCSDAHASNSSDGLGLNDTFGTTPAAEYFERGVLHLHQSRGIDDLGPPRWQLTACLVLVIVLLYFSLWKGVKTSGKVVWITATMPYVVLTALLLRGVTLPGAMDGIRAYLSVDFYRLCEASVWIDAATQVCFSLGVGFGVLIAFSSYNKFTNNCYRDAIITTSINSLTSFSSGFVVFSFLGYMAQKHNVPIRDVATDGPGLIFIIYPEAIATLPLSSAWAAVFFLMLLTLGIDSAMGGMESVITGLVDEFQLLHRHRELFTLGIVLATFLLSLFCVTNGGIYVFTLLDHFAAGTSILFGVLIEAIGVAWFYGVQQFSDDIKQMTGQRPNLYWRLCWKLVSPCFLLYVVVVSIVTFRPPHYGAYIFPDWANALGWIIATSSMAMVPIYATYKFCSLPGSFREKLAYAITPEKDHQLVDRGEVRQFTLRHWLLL
Sequence of Norepinephrine transporter (Q9WTR4 whole entry): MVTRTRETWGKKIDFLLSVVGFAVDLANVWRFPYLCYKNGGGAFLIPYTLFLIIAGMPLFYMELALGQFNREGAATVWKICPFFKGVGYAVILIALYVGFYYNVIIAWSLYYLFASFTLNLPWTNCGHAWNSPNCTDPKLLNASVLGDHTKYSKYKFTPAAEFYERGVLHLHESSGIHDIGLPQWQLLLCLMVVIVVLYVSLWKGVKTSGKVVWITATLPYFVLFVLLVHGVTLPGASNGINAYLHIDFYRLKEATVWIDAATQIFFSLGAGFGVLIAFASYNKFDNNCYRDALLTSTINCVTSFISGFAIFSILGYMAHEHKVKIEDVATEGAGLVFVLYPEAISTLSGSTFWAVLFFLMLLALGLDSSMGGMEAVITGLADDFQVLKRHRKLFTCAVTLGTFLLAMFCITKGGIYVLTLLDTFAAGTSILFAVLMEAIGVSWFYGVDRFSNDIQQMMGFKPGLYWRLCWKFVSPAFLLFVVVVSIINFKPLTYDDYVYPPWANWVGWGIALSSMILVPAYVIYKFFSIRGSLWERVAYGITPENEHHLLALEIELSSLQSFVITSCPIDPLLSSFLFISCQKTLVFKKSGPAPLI
Sequence of Sodium-dependent serotonin transporter (P31652 whole entry): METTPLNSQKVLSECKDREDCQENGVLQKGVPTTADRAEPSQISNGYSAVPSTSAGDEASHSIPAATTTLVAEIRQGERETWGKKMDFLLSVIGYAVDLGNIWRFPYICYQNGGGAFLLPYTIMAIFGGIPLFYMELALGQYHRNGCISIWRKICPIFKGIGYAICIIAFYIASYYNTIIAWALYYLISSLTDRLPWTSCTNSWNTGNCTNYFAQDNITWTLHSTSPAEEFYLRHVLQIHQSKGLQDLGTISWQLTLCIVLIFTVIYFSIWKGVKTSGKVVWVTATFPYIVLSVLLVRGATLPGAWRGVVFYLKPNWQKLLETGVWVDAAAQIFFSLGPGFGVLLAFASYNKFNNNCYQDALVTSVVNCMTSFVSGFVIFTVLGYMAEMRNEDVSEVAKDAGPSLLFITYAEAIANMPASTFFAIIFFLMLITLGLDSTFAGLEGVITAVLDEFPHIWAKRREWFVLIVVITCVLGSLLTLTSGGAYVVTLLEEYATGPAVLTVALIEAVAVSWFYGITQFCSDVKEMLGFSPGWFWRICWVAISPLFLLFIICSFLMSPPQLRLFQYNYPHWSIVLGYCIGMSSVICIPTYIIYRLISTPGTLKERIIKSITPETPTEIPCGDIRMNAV

Broadly, the pKi is the Ki on a negative log10 scale, so that one unit is a factor of ten. A higher pKi goes with a small Ki. Consider `C=CCN1C2CCC1CC(OC(c1ccc(Cl)cc1)c1ccc(Cl)cc1)C2` (centres undefined), for which the pKi was 7.26 in assay [1], 6.90 in assay [2], 6.25 in assay [3] and 5.38 in assay [4].
With `CCCCc1cccc(N2[C@@H]3CC[C@H]2C[C@H](OC(c2ccc(Cl)cc2)c2ccc(Cl)cc2)C3)c1`, the pKi in assay [1] is 7.07; in assay [2] it was 5.43; in assay [3], 6.18; in assay [4] it was 5.31.
Take `C=CCN1C2CCC1CC(OC(c1ccccc1)c1cccc(Cl)c1)C2` (centres undefined): the pKi in assay [1] was 7.47; in assay [2], 7.16; in assay [3], 5.92; in assay [4], 5.91.
Turning to `Clc1ccc(C(OC2CC3CCC(C2)N3)c2ccc(Cl)cc2)cc1` (centres undefined), the values for the pKi in assay [2], in assay [3] and in assay [4] were 6.19, 6.14 and 5.22, respectively.
Regarding `CN1[C@@H]2CC[C@H]1C[C@@H](OC(c1ccccc1)c1cccc(Cl)c1)C2` (some centres undefined), the results for the pKi in assay [3] and in assay [4] were 6.59 and 6.35, respectively.
Turning to `CCCCc1cccc(N2[C@@H]3CC[C@H]2C[C@H](OC(c2ccccc2)c2ccc(Cl)cc2)C3)c1` (some centres undefined), the pKi was 7.27 in assay [1], 5.84 in assay [2], 6.13 in assay [3] and 5.63 in assay [4].
For `CCCCc1cccc(N2C3CCC2CC(OC(c2ccccc2)c2cccc(Cl)c2)C3)c1` (centres undefined), the pKi is 6.82 in assay [1], 6.25 in assay [2], 6.23 in assay [3] and 5.83 in assay [4].
Turning to `Clc1cccc(C(OC2CC3CCC(C2)N3Cc2ccccc2)c2ccccc2)c1` (centres undefined), the negative logarithm of the Ki (pKi) in assay [1] is 6.72; in assay [2] it was 6.17; in assay [3] it was 5.77; in assay [4], 5.19.
On to `CCCc1cccc(N2[C@H]3CC[C@]2(C)C[C@@H](OC(c2ccccc2)c2ccc(Cl)cc2)C3)c1` (some centres undefined), for which the pKi was 6.83 in assay [1], 6.40 in assay [2], 6.52 in assay [3] and 4.99 in assay [4].
Take `Clc1ccc(C(OC2CC3CCC(C2)N3Cc2ccccc2)c2ccccc2)cc1` (centres undefined): the pKi was 6.44 in assay [1], 5.59 in assay [2], 5.45 in assay [3] and 4.89 in assay [4].
With `Clc1ccc(C(OC2CC3CCC(C2)N3)c2ccccc2)cc1` (centres undefined), the pKi in assay [1] is 7.43; in assay [2] it was 7.02; in assay [3] it was 5.88; in assay [4], 6.00.
On the same counts, the results for `CCCc1cccc(N2[C@@H]3CC[C@H]2C[C@H](OC(c2ccccc2)c2cccc(Cl)c2)C3)c1` (some centres undefined) are 7.00, 6.47, 6.37 and 5.74.
The like results for `Clc1ccc(C(OC2CC3CCC(C2)N3Cc2ccccc2)c2ccc(Cl)cc2)cc1` (centres undefined) were, in that order, 6.40, 5.06, 5.44 and 5.12.
Consider `Clc1cccc(C(OC2CC3CCC(C2)N3)c2ccccc2)c1` (centres undefined), for which the pKi in assay [1] is 7.58; in assay [2], 7.04; in assay [3], 5.68; in assay [4], 6.29.
In the case of `CCCc1cccc(N2[C@@H]3CC[C@H]2C[C@H](OC(c2ccc(Cl)cc2)c2ccc(Cl)cc2)C3)c1`, the pKi in assay [1] is 6.80; in assay [2] it was 5.52; in assay [3], 6.23; in assay [4], 4.70.
On to `C=CCN1C2CCC1CC(OC(c1ccccc1)c1ccc(Cl)cc1)C2` (centres undefined), for which the pKi in assay [1] was 7.07; in assay [2], 6.90; in assay [3], 5.63; in assay [4] it was 5.33.
As for `CN1C2CCC1CC(OC(c1ccccc1)c1ccc(Cl)cc1)C2` (centres undefined), the pKi is 8.10 in assay [2], 5.29 in assay [3] and 5.83 in assay [4].
